Test results taken from patent US11918645B2, “Vaccines against hepatitis B virus” (priority 2012, dated 2024).

Legend:
[1] = preparation of pool 22
[2] = system: PBMC from chronic HBV-infected subjects; experiment: IFNγ ELISpot of PBMC restimulated with individual unconjugated HBV long peptides (Example 5); assay type: cell-based, human; settings: for T cell responses (IFNγ ELISpot), level and frequency of responders: HBeAg-negative inactive carriers and HBeAg-negative treated subjects, 5 μg/mL, 18 h, FIGS. 9 and 10; for T cell responses (IFNγ ELISpot) grouped by infecting HBV genotype: genotypes A, B, C & D, FIG. 11; for T cell responses (IFNγ ELISpot) grouped by ethnic background: three ethnic groups, FIG. 12
Experimental: One vial of PBMC from each subject (containing 1×10^7 cells) was thawed and lymphocyte numbers were determined using a Scepter™ automated handheld cell counter. PBMC were cultured in 2 mL culture medium (CM: RPMI-1640 Glutamax supplemented with 5% human AB serum) in 24 well cell culture plates at a concentration of 1×10^6 cells/mL for a total of 11 days. Cells were stimulated with a mixture of the nine HBV-derived long peptides described in Example 3.
Each peptide was used at a final concentration of 1 μg/peptide/mL. On Day 4, IL-2 and IL-15 were added to the cultures to final concentrations of 10 IU/mL and 10 ng/mL respectively. On Day 10, cells were washed twice in CM and cultured with 10 IU/mL IL-2 for 1 additional day. On Day 11, cells were washed twice in CM, counted and incorporated in a human IFNγ (interferon-gamma) ELISpot assay or intracellular cytokine staining.
Cells from short term cultures were plated in triplicate wells at 5×10^4 PBMC/well. Final antigen concentrations used were: 5 μg/mL for each individual peptides; PHA positive control: 1 μg/mL.

HLA-A*0201 = HLA-A*0201 (Homo sapiens, UniProt P04439, D140Y/D185E/D98H/E176V/E277Q/G131W/G231S/I119V/I121R/I166T/I218V/L300P/L318F/N151K/N90K/P208A/P217A/Q86G/Q94H/R138H/R169H/T345S); experiment: ProImmune REVEAL MHC class I binding assay of nonamers; settings: score as % of positive control peptide
Source text: (§1) The number of HLA class I binding registers contained in each peptide may be determined by determining the ability of the peptide to bind to a range of frequently occurring HLA class I molecules. HLA class I binding may be measured using the ProImmune REVEAL® MHC-peptide Binding Assay (ProImmune Ltd, Oxford, UK). The REVEAL™ MHC peptide-binding assay measures the ability of each peptide to stabilize the ternary MHC-peptide complex for […], HLA-A*0201, HLA¬A*0301, HLA-A*2402, HLA-B*0702, HLA-B*0801, HLA-B*3501 representative of main HLA class I supertypes. Each tested peptide is given a score relative to a pass/fail control peptide and also compared to a positive control peptide.
(§2) Detection is based on the presence or absence of the native conformation of the MHC-peptide complex. The highly frequent HLA class I alleles (HLA-A*0201, A*0301, A*1101, A*2402, B*0702, B*0801, and B*3501) were selected. Binding to MHC molecules was compared to that of a known T-cell epitope, a positive control peptide, with very strong binding properties. […] The score of the test peptide is reported quantitatively as a percentage of the signal generated by the positive control peptide, and the peptide is indicated as having a putative pass or fail result. Good binders are considered to be those peptides with scores 45% of the positive control as defined by ProImmune.

HLA-A*0301 = biological target: T1, HLA-A*0301 (Homo sapiens, UniProt P04439); experiment: as above; settings: score as % of positive control peptide
T1 construct: purchased ProImmune
Source text: as §1, §2

HLA-A*1101 = biological target: T2, HLA-A*1101 (Homo sapiens, UniProt P04439, A114D/D185E/E176A/F33Y/L180Q/S129P/T187R); experiment: as above; settings: score as % of positive control peptide
T2 construct: purchased ProImmune
Source text: as §1, §2

HLA-A*2402 = HLA-A*2402 (Homo sapiens, UniProt P04439, D101N/D140Y/D185E/E176V/E190D/F33S/G103R/G107R/I119L/I121M/I306V/K335N/L105A/L180Q/L300P/N151K/N90K/Q86E/Q94H/R106L/R138H/R89G/T104I/T345S/V100E/W191G/Y123F); experiment: as above; settings: score as % of positive control peptide
Source text: as §1, §2

HLA-B*0702 = biological target: T3, HLA-B*0702 (Homo sapiens, UniProt P01889); experiment: as above; settings: score as % of positive control peptide
T3 construct: purchased ProImmune
Source text: as §1, §2

HLA-B*0801 = HLA-B*0801 (Homo sapiens, UniProt P01889, A93T/A95T/D138N/E176V/E187T/K202T/Q94N/R180D/S35A/V36M/Y33D/Y91F); experiment: as above; settings: score as % of positive control peptide
Source text: as §1, §2

HLA-B*3501 = HLA-B*3501 (Homo sapiens, UniProt P01889, A329T/A93T/A95T/C349S/D201E/D98Y/E176V/E187L/E204Q/E69T/I218V/K202T/L119I/Q94N/R155S/R180L/S121R/S35A/S48A/T118I/V127L/V306I/V36M/Y140S/Y91F); experiment: as above; settings: score as % of positive control peptide
Source text: as §1, §2

HLA class I alleles = experiment: ProImmune REVEAL MHC class I binding assay, summary over the seven alleles; design: species or system human; settings: for Number of allele (b): number of class I alleles for which positive binding was detected; for Number of HLA binders (a): total number binding epitopes detected for each long peptide, seven class I alleles
Source text: as §1, §2

[3] = system: HLA-DR1 (α1*01:01;β1*01:01); experiment: ProImmune REVEAL MHC class II binding assay of long peptides; design: species or system human; settings: percentage of the signal of the positive control peptide; positive binding score >=15%
Source text: (§3) The highly frequent HLA class II alleles HLA-DR1 (α1*01:01;β1*01:01), HLA-DR15 (α1*01:01;β1*15:01), HLA-DR3 (α1*01:01;β1*03:01), HLA-DR4 (α1*01:01;β1*04:01), HLA-DR11 (α1*01:01;β1*11:01), HLA-DR13 (α1*01:01;β1*13:01), and HLA-DR7 (α1*01:01;β1*07:01) were selected. Each peptide was given a score relative to the positive control peptide, which is a known T-cell epitope. The score of the test peptide is reported quantitatively as a percentage of the signal generated by the positive control peptide, and the peptide is indicated as having a putative pass or fail result. Good binders are considered to be those peptides with scores >=15% of the positive control as defined by Proimmune.

[4] = system: HLA-DR3 (α1*01:01;β1*03:0); experiment: as above; design: species or system human; settings: percentage of the signal of the positive control peptide; positive binding score >=15%
Source text: as §3

[5] = biological target: T4, HLA-DR15 (α1*01:01;β1*15:01) (Homo sapiens, UniProt P01903+P01911); experiment: as above; settings: percentage of the signal of the positive control peptide; positive binding score >=15%
T4 construct: purchased ProImmune
Source text: as §3

[6] = biological target: T5, HLA-DR7 (α1*01:01;β1*07:01) (Homo sapiens, UniProt P01903+P01911, A100R/A102G/A103Q/D57E/D86V/E43K/F76Y/K127E/L162R/M171V/P40G/Q125H/Q99D/R195Q/R33Q/R42Y/R54Q/S133A/S149N/S66F/T210M/V115G/Y107V/Y59L/Y89S); experiment: as above; settings: percentage of the signal of the positive control peptide; positive binding score >=15%
T5 construct: purchased ProImmune
Source text: as §3

[7] = system: HLA-DP4 (α1*01:03;β1*04:01); experiment: as above; design: species or system human; settings: percentage of the signal of the positive control peptide; positive binding score >=15%
HLA class II alleles = experiment: ProImmune REVEAL MHC class II binding assay, summary over the seven alleles; design: species or system human; settings: number of class II alleles for which positive binding (score >=15%) was detected
Source text: as §3

[8] = biological target: T6, HLA-DR13 (α1*01:01;β1*13:01) (Homo sapiens, UniProt P01903+P01911, A100E/A169T/K41T/L162R/M171V/P40S/Q125H/Q178H/Q39Y/Q99D/R42S/S66N/W38E/Y61H); experiment: ProImmune REVEAL MHC class II binding assay of long peptides; settings: percentage of the signal of the positive control peptide; positive binding score >=15%
T6 construct: purchased ProImmune
Source text: The highly frequent HLA class II alleles HLA-DR1 (α1*01:01;β1*01:01), HLA-DR15 (α1*01:01;β1*15:01), HLA-DR3 (α1*01:01;β1*03:01), HLA-DR4 (α1*01:01;β1*04:01), HLA-DR11 (α1*01:01;β1*11:01), HLA-DR13 (α1*01:01;β1*13:01), and HLA-DR7 (α1*01:01;β1*07:01) were selected. Each peptide was given a score relative to the positive control peptide, which is a known T-cell epitope.

T6 sequence (P01903 26-216, other chains not shown): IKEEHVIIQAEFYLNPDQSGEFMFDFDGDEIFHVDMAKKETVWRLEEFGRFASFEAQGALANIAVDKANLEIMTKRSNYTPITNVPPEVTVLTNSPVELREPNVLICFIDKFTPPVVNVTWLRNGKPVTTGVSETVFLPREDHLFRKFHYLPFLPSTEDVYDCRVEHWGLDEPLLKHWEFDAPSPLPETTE

Compound	dispersibility / solubility [1]	T cell responses (IFNγ ELISpot), level and frequency of responders [2]	T cell responses (IFNγ ELISpot) grouped by infecting HBV genotype [2]	T cell responses (IFNγ ELISpot) grouped by ethnic background [2]	Number of nonamers having a binding score >= 45%, HLA-A*0201 (HLA-A*0201)	Number of nonamers having a binding score >= 45%, HLA-A*0301 (HLA-A*0301)	Number of nonamers having a binding score >= 45%, HLA-A*1101 (HLA-A*1101)	Number of nonamers having a binding score >= 45%, HLA-A*2402 (HLA-A*2402)	Number of nonamers having a binding score >= 45%, HLA-B*0702 (HLA-B*0702)	Number of nonamers having a binding score >= 45%, HLA-B*0801 (HLA-B*0801)	Number of nonamers having a binding score >= 45%, HLA-B*3501 (HLA-B*3501)	Number of allele (b) (HLA class I alleles)	Number of HLA binders (a) (HLA class I alleles)	binding score, HLA-DR1 (α1*01:01;β1*01:01) [3] [%]	binding score, HLA-DR3 (α1*01:01;β1*03:0) [4] [%]	binding score, HLA-DR15 (α1*01:01;β1*15:01) [5] [%]	binding score, HLA-DR7 (α1*01:01;β1*07:01) [6] [%]	binding score, HLA-DP4 (α1*01:03;β1*04:01) [7] [%]	Number of allele (a) (HLA class II alleles)	binding score, HLA-DR13 (α1*01:01;β1*13:01) [8] [%]
CC[C@H](C)[C@H](NC(=O)[C@H](Cc1ccccc1)NC(=O)[C@H](CC(C)C)NC(=O)[C@H](Cc1ccccc1)NC(=O)[C@@H](NC(=O)[C@@H](NC(=O)[C@H](Cc1ccccc1)NC(=O)[C@H](CCCNC(=N)N)NC(=O)[C@H](CCCNC(=N)N)NC(=O)[C@@H](N)CC(C)C)[C@@H](C)CC)[C@@H](C)CC)C(=O)N[C@@H](CC(C)C)C(=O)N[C@@H](CC(C)C)C(=O)N[C@@H](CC(C)C)C(=O)N[C@@H](CS)C(=O)N[C@@H](CC(C)C)C(=O)N[C@H](C(=O)N[C@@H](Cc1ccccc1)C(=O)N[C@@H](CC(C)C)C(=O)N[C@@H](CC(C)C)C(=O)N[C@H](C(=O)O)C(C)C)[C@@H](C)CC [SEQ ID NO: 212]	could not be dispersed due to insolubility	–	–	–	–	–	–	–	–	–	–	–	–	–	–	–	–	–	–	–
NP877: unconjugated HBV long peptide, core 860-890	–	highest level of responses in both patient populations and in the highest proportion of subjects	highest responses across all four genotypes A, B, C & D	highest responses across all three ethnic groups	2	0	0	2	1	1	0	4	6	0.24	5.58	0.09	2.78	0.04	1	–
CC[C@H](C)[C@H](NC(=O)[C@H](CC(C)C)NC(=O)[C@H](CS)NC(=O)[C@H](CC(C)C)NC(=O)[C@H](CC(C)C)NC(=O)[C@H](CC(C)C)NC(=O)[C@@H](NC(=O)[C@@H](N)Cc1ccccc1)[C@@H](C)CC)C(=O)N[C@@H](Cc1ccccc1)C(=O)N[C@@H](CC(C)C)C(=O)N[C@@H](CC(C)C)C(=O)N[C@H](C(=O)N[C@@H](CC(C)C)C(=O)N[C@@H](CC(C)C)C(=O)N[C@@H](CC(=O)O)C(=O)N[C@@H](Cc1ccc(O)cc1)C(=O)N[C@@H](CCC(N)=O)C(=O)NCC(=O)N[C@@H](CCSC)C(=O)N[C@@H](CC(C)C)C(=O)O)C(C)C [SEQ ID NO: 213]	could not be dispersed due to insolubility	–	–	–	–	–	–	–	–	–	–	–	–	–	–	–	–	–	–	–
NP856(K): unconjugated HBV long peptide, core 839-873 + KKK (LTFGRETVLEYLVSFGVWIRTPPAYRPPNAPILSTKKK; HBV CONSENSUS SEQUENCE)	–	highest level of responses in both patient populations and in the highest proportion of subjects	highest responses across all four genotypes A, B, C & D	highest responses across all three ethnic groups	4	0	0	4	2	1	0	4	11	2.33	0.13	5.71	0.40	10.72	0	0.00
